Assay results taken from the Deep4Chem optical property database.
One block for each molecule: values may come before it.

Assay: photoluminescence quantum yield (fraction); solvent given as SMILES
[1] = in c1ccc([Si](c2ccccc2)(c2ccc(-n3c4ccccc4c4ccccc43)cc2)c2ccc(-n3c4ccccc4c4ccccc43)cc2)cc1

SMILES: CN(C)c1ccc2nc(/C=C/c3ccccc3)c(=O)oc2c1
photoluminescence quantum yield (in C1CCCCC1): 0.77
photoluminescence quantum yield (in C1COCCO1): 0.79
photoluminescence quantum yield (in CC#N): 0.54
photoluminescence quantum yield (in CC(C)=O): 0.71
photoluminescence quantum yield (in CCCCCCC): 0.74
photoluminescence quantum yield (in CCO): 0.55
photoluminescence quantum yield (in CCOC(C)=O): 0.75
photoluminescence quantum yield (in CN(C)C=O): 0.66
photoluminescence quantum yield (in CS(C)=O): 0.61
photoluminescence quantum yield (in Cc1ccccc1): 0.77
photoluminescence quantum yield (in ClC(Cl)Cl): 0.81
photoluminescence quantum yield (in ClCCl): 0.81

photoluminescence quantum yield (in ClC(Cl)Cl): 0.32
SMILES: COc1ccc2c(c1)CCc1c(-c3ccccc3)c3n(c1-2)[B-](F)(F)[N+]1=C2C(=C(c4ccccc4)C1=N3)CCc1ccccc12

photoluminescence quantum yield (in ClCCl): 0.42
SMILES: Cc1ccc(-c2cnc3ccc4ccccc4n23)cc1

photoluminescence quantum yield (in CCCO): 0.45
SMILES: CCOC(=O)c1ccc2c(c1)[nH]c1c3ccc(C(=O)OCC)cc3sc21

photoluminescence quantum yield (in C1COCCO1): 0.0191
photoluminescence quantum yield (in CC#N): 0.00752
photoluminescence quantum yield (in CCCCO): 0.0169
photoluminescence quantum yield (in CCCO): 0.0108
photoluminescence quantum yield (in CCO): 0.00738
photoluminescence quantum yield (in CCOC(C)=O): 0.0275
photoluminescence quantum yield (in CO): 0.00499
SMILES: CN1C(C(=O)Nc2ccccn2)=C(O)c2sccc2S1(=O)=O

photoluminescence quantum yield (in ClCCl): 0.191
SMILES: CCOC(=O)c1ccc(C2CC(c3cccc4ccccc34)=NN2c2ccc(F)cc2)cc1 (stereo not drawn)

photoluminescence quantum yield (in ClCCl): 0.12
SMILES: CC(C)(C)C#Cc1cc2c(C#CC(C)(C)C)c(C#CC(C)(C)C)c3cc(C#CC(C)(C)C)cc4c(C#CC(C)(C)C)c(C#CC(C)(C)C)c(c1)c2c34

photoluminescence quantum yield (in ClCCl): 0.85
SMILES: FC(F)(F)c1ccccc1B1c2ccccc2Nc2ccccc21

photoluminescence quantum yield (in ClCCl): 0.95
SMILES: O=C1OC(=O)C2=C1S[C@]13C2=C[C@H](c2ccccc21)c1ccccc13

photoluminescence quantum yield (in ClCCl): 0.91
SMILES: COc1ccccc1C1=[N+]2C(=C(c3ccccc3)c3c4ccccc4c(-c4ccccc4OC)n3[B-]2(F)F)c2ccccc21

photoluminescence quantum yield (in C1CCOC1): 0.41
photoluminescence quantum yield (in ClCCl): 0.82
SMILES: COc1ccc(C2=Cc3ccccc3P2(=O)c2ccccc2)cc1 (stereo not drawn)

photoluminescence quantum yield (in CCO): 0.1
photoluminescence quantum yield (in CO): 0.08
photoluminescence quantum yield (in CS(C)=O): 0.18
SMILES: CN1/C(=C/C=C(/C=C/c2sc3ccccc3[n+]2C)c2cc(F)cc(F)c2)Sc2ccccc21

SMILES: COc1cc(C2=c3c(c4ccc(C(C)(C)C)cc4c4c(OC)c(OC)c(OC)cc34)=[N+]3C2=Nc2c(-c4cc(OC)c(OC)c(OC)c4)c4c5cc(OC)c(OC)c(OC)c5c5cc(C(C)(C)C)ccc5c4n2[B-]3(F)F)cc(OC)c1OC
photoluminescence quantum yield (in Cc1ccccc1): 0.001

photoluminescence quantum yield (in CC#N): 0.18
SMILES: Cc1cc(C)c2c(c1)nc1c(=O)n(C)c(=O)nc-1n2C

SMILES: CC(C)(C)c1ccc2c(c1)c1cc(C(C)(C)C)ccc1n2-c1ccc(S(=O)(=O)c2ccc(-n3c4ccc(C(C)(C)C)cc4c4cc(C(C)(C)C)ccc43)cc2)cc1
photoluminescence quantum yield (in Cc1ccccc1): 0.69

SMILES: N#Cc1cccc(N2c3ccccc3C(c3ccccc3)(c3ccccc3)c3ccccc32)c1
photoluminescence quantum yield (in Cc1ccccc1): 0.1

photoluminescence quantum yield (in ClCCl): 0.89
SMILES: c1ccc2c(c1)OP1(=NP(Oc3ccc4ccc5cccc6ccc3c4c56)(Oc3ccc4ccc5cccc6ccc3c4c56)=NP(Oc3ccc4ccc5cccc6ccc3c4c56)(Oc3ccc4ccc5cccc6ccc3c4c56)=N1)Oc1ccccc1-2

photoluminescence quantum yield (in CCO): 0.64
photoluminescence quantum yield (in ClC(Cl)Cl): 0.36
SMILES: CCOc1ccc2c(-c3nc(-c4ccccc4F)no3)cc(=O)oc2c1

photoluminescence quantum yield (in ClCCl): 0.15
SMILES: CCOC(=O)c1sc(-c2ccc(-c3cc(-c4ccc(C(C)(C)C)cc4)c(C(=O)OCC)s3)s2)cc1-c1ccc(C(C)(C)C)cc1

photoluminescence quantum yield (in O): 0.28
SMILES: COc1ccc(C)cc1C1=C2C=CC(=[N+](C)C)C=C2[Si](C)(C)c2cc(N(C)C)ccc21

SMILES: c1csc(-c2ccc(-c3cccs3)s2)c1
photoluminescence quantum yield (in CC#N): 0.09
photoluminescence quantum yield (in ClCCl): 0.05

SMILES: COc1cc2c(cc1/C=C/C1=CC(=C(C#N)C#N)CC(C)(C)C1)c1ccccc1n2C
photoluminescence quantum yield (in C1CCOC1): 0.013
photoluminescence quantum yield (in CC#N): 0.031
photoluminescence quantum yield (in CCO): 0.021
photoluminescence quantum yield (in CCOC(C)=O): 0.009
photoluminescence quantum yield (in CN(C)C=O): 0.038
photoluminescence quantum yield (in CS(C)=O): 0.059
photoluminescence quantum yield (in Cc1ccccc1): 0.007
photoluminescence quantum yield (in ClC(Cl)Cl): 0.018
photoluminescence quantum yield (in ClCCl): 0.022

photoluminescence quantum yield (in CC1CCCCC1): 0.003
photoluminescence quantum yield (in CC#N): 0.003
photoluminescence quantum yield (in CO): 0.002
SMILES: COC(=O)C(NC(=O)OC(C)(C)C)c1ccc2oc(-c3ccc(OC(=O)c4ccccc4)cc3OC(=O)c3ccccc3)nc2c1 (stereo not drawn)

photoluminescence quantum yield (in C1CCCCC1): 0.032
photoluminescence quantum yield (in C1COCCO1): 0.03
photoluminescence quantum yield (in CC#N): 0.02
photoluminescence quantum yield (in CN(C)C=O): 0.042
photoluminescence quantum yield (in CO): 0.034
photoluminescence quantum yield (in O): 0.027
photoluminescence quantum yield (in OCC(O)CO): 0.38
photoluminescence quantum yield (in OCCO): 0.108
SMILES: COc1cc(/C=C2/SC(=O)NC2=O)cc(OC)c1O

photoluminescence quantum yield (in CC#N): 0.19
SMILES: C=CC(=O)Oc1ccc2cc(C=C)c(=O)oc2c1

photoluminescence quantum yield (in C1CCCCC1): 0.0018
photoluminescence quantum yield (in CC#N): 0.0048
SMILES: Cc1ccc(/C=C/c2ccccc2-[n+]2noc([O-])c2-c2ccccc2)cc1

SMILES: BrCCCCCCCCCCCCOc1cc2ccc3cccc4ccc(c1)c2c34
photoluminescence quantum yield (in Cc1ccccc1): 0.59

SMILES: CCCCCCCCOc1ccc(C#Cc2ccc(C#Cc3ccc(OCCCCCCCC)c(OCCCCCCCC)c3)c3nc4c5ccccc5c5ccccc5c4nc23)cc1OCCCCCCCC
photoluminescence quantum yield (in C1CCOC1): 0.18
photoluminescence quantum yield (in Cc1ccccc1): 0.19
photoluminescence quantum yield (in ClCCl): 0.33

SMILES: Cc1ccccc1/C(C#N)=C/c1ccc(N(C)C)cc1
photoluminescence quantum yield (in C1CCOC1): 0.011
photoluminescence quantum yield (in C1COCCO1): 0.01
photoluminescence quantum yield (in CC#N): 0.014
photoluminescence quantum yield (in CCCCCC): 0.012
photoluminescence quantum yield (in CCCCCCC): 0.008
photoluminescence quantum yield (in CCCCCO): 0.01
photoluminescence quantum yield (in CCCCO): 0.006
photoluminescence quantum yield (in CCCO): 0.008
photoluminescence quantum yield (in CCO): 0.006
photoluminescence quantum yield (in CCOC(C)=O): 0.007
photoluminescence quantum yield (in CN(C)C=O): 0.015
photoluminescence quantum yield (in CO): 0.005
photoluminescence quantum yield (in CS(C)=O): 0.011
photoluminescence quantum yield (in Cc1ccccc1): 0.021
photoluminescence quantum yield (in ClC(Cl)Cl): 0.009

photoluminescence quantum yield (in C1CCOC1): 0.42
SMILES: COc1cc2c(cc1-c1ccncc1)Cc1c3c(c4c(c1-2)-c1cc(OC)c(-c2ccncc2)cc1C4)C(=O)N(CCC(C)C)C3=O

photoluminescence quantum yield (in CCO): 0.595
SMILES: CCOC(=O)c1cc(C(=O)OCC)c2cc(N(C)C)ccc2n1

photoluminescence quantum yield (in ClCCl): 0.00019
SMILES: COc1cc2c(cc1OC)C1=C[C@H](c3ccc(Cl)cc3)C3(C(C#N)=C(C#N)N1CC2)c1cc(Br)ccc1-c1ccc(Br)cc13

photoluminescence quantum yield (in CC1CCCO1): 0.8
SMILES: CC1=CC(/C=C/c2ccc3ccc4cccc5ccc2c3c45)=[N+]2C1=C(c1ccccc1)c1c(C)cc(/C=C/c3ccc4ccc5cccc6ccc3c4c56)n1[B-]2(F)F

SMILES: O=C1C(=c2c(=O)c3c4ccccc4cc4cc5ccccc5c2c43)C(=O)c2ccccc21
photoluminescence quantum yield (in C1CCOC1): 0.235
photoluminescence quantum yield (in CC#N): 0.09
photoluminescence quantum yield (in CCCCCC): 0.292
photoluminescence quantum yield (in Cc1ccccc1): 0.268
photoluminescence quantum yield (in ClCCl): 0.193

photoluminescence quantum yield (in C1CCCCC1): 0.014
photoluminescence quantum yield (in CC#N): 0.075
photoluminescence quantum yield (in CN(C)C=O): 0.022
photoluminescence quantum yield (in CO): 0.017
photoluminescence quantum yield (in CS(C)=O): 0.024
photoluminescence quantum yield (in c1ccccc1): 0.052
SMILES: COc1cc(/C=C/C(=O)CC(=O)/C=C/c2ccc(O)c(OC)c2)ccc1O

photoluminescence quantum yield (in C1COCCO1): 0.11
photoluminescence quantum yield (in CCO): 0.11
photoluminescence quantum yield (in O): 0.009
photoluminescence quantum yield (in OCCO): 0.13
SMILES: CC1=CC(=[N+]2CCC2)C=C2C1=Nc1c(C)cc(N3CCC3)cc1[Si]2(C)C

photoluminescence quantum yield (in CC#N): 0.71
SMILES: N#Cc1nn(-c2ccccc2C(F)(F)F)nc1N1CCCC1

SMILES: Cc1c(COC(=O)Cc2ccccc2)n2c(OCC(=O)Cc3ccccc3)c(C)c(=O)n2c1=O
photoluminescence quantum yield (in CCO): 0.836

SMILES: Cc1c(C)c(B(c2c(C)c(C)c(N3c4ccccc4Oc4ccccc43)c(C)c2C)c2c(C)c(C)c(N3c4ccccc4Oc4ccccc43)c(C)c2C)c(C)c(C)c1C#N
photoluminescence quantum yield [1]: 0.75

SMILES: N#Cc1c(-n2c3ccccc3c3ccccc32)c(F)c(-n2c3ccccc3c3ccccc32)c(F)c1-n1c2ccccc2c2ccccc21
photoluminescence quantum yield (in Cc1ccccc1): 0.76
photoluminescence quantum yield [1]: 0.74

photoluminescence quantum yield (in ClCCl): 0.94
SMILES: CCCCC(CC)COc1ccc2nc(-c3ccc(-c4ccc(N(C)C)cc4)s3)sc2c1 (stereo not drawn)

photoluminescence quantum yield (in ClCCl): 0.258
SMILES: CCOC(=O)c1ccc(C2CC(c3cccc4ccccc34)=NN2c2ccc(C#N)cc2)cc1 (stereo not drawn)

photoluminescence quantum yield (in ClCCl): 0.42
SMILES: COc1ccc(-c2ccc(/C=C/c3cnc4ccccc4n3)cc2)cc1

photoluminescence quantum yield (in ClCCl): 0.15
SMILES: CC(C)[Si](C#Cc1c2cc3ccccc3cc2c(C#C[Si](C(C)C)(C(C)C)C(C)C)c2cc3ccccc3cc12)(C(C)C)C(C)C

photoluminescence quantum yield (in CCCCCC): 0.15
SMILES: CC(C)[Si](C#Cc1c2cc3ccccc3cc2c(C#C[Si](C(C)C)(C(C)C)C(C)C)c2nc3c(nc12)Cc1ccccc1-3)(C(C)C)C(C)C

photoluminescence quantum yield (in CCO): 0.839
SMILES: Cc1c(COC(=O)c2ccccc2)n2c(OCC(=O)c3ccccc3)c(C)c(=O)n2c1=O

photoluminescence quantum yield (in CN(C)C=O): 0.105
photoluminescence quantum yield (in O): 0.783
SMILES: CC[N+]1(CC)CN2C(C)=CC(C)=C(C(=O)[O-])C2=N1

SMILES: CC(C)(C)c1ccc2c(c1)c1cc(C(C)(C)C)ccc1n2-c1cc(C(=O)c2ccccn2)cc(-n2c3ccc(C(C)(C)C)cc3c3cc(C(C)(C)C)ccc32)c1
photoluminescence quantum yield (in Cc1ccccc1): 0.072
photoluminescence quantum yield (in c1cc(-c2cccc(-n3c4ccccc4c4ccccc43)c2)cc(-n2c3ccccc3c3ccccc32)c1): 0.96

photoluminescence quantum yield (in C1CCCCC1): 0.72
photoluminescence quantum yield (in CC#N): 0.76
SMILES: CN(C)c1ccc(-c2nc3cccnc3[nH]2)cc1

photoluminescence quantum yield (in CCO): 0.04
SMILES: N#CC1=C(c2ccc(-c3cccs3)s2)CCC1

SMILES: C(#Cc1ccc2ncsc2c1)c1ccc(N(c2ccc(C#Cc3ccc4ncsc4c3)cc2)c2ccc(C#Cc3ccc4ncsc4c3)cc2)cc1
photoluminescence quantum yield (in Cc1ccccc1): 0.53

photoluminescence quantum yield (in C1CCCCC1): 0.38
photoluminescence quantum yield (in C1CCOC1): 0.34
photoluminescence quantum yield (in C1COCCO1): 0.26
photoluminescence quantum yield (in CC#N): 0.61
photoluminescence quantum yield (in CC(C)O): 0.53
photoluminescence quantum yield (in CCCCCC): 0.31
photoluminescence quantum yield (in CN(C)C=O): 0.57
photoluminescence quantum yield (in CO): 0.62
photoluminescence quantum yield (in ClC(Cl)Cl): 0.43
photoluminescence quantum yield (in c1ccccc1): 0.42
SMILES: CC1(C)CCc2c(c3ccccc3c3nc4c5c(c6ccccc6c4nc23)OC(C)(C)CC5)O1
